{"source": "the OligoGym collection", "target": "ATXN3", "assay": "mouse, dose not given", "conditions": "ASO", "note": "HELM strings list units from the 5' end as sugar, base in round brackets, then linkage (d deoxyribose, r ribose, m 2'-O-methyl, p phosphodiester). Strings are as the collection lists them; they lack the last nucleoside at the 3' end of the tested compound. [moe] = 2'-O-(2-methoxyethyl) (MOE); [sp] = phosphorothioate linkage; [m5C] = 5-methylcytosine"}
{"substance": "RNA1{[moe]([m5C])[sp].[moe](A)p.[moe](G)p.[moe]([m5C])p.[moe](A)p.[moe]([m5C])p.d([m5C])[sp].d(A)[sp].d(T)[sp].d(A)[sp].d(T)[sp].d(A)[sp].d(T)[sp].d(A)[sp].d(T)[sp].d([m5C])[sp].[moe](T)p.[moe]([m5C])[sp].[moe](A)}$$$$ (last 3' nucleoside missing)", "values": [{"measurement": "3 h FOB score", "value": 0.625, "unit": "score 0-7"}]}
{"substance": "RNA1{[moe](G)[sp].[moe](G)p.[moe](T)p.[moe]([m5C])p.[moe](A)p.[moe](G)p.d(T)[sp].d(T)[sp].d(T)[sp].d([m5C])[sp].d([m5C])[sp].d(T)[sp].d(A)[sp].d(A)[sp].d(T)[sp].d(T)[sp].[moe](T)p.[moe](T)[sp].[moe](A)}$$$$ (last 3' nucleoside missing)", "values": [{"measurement": "3 h FOB score", "value": 1, "unit": "score 0-7"}]}
{"substance": "RNA1{[moe](A)[sp].[moe](A)p.[moe](T)p.[moe](G)p.[moe]([m5C])[sp].d(T)[sp].d([m5C])[sp].d(A)[sp].d(T)[sp].d(T)[sp].d(T)[sp].d(A)[sp].d(T)[sp].d(T)[sp].d([m5C])[sp].[moe](T)p.[moe]([m5C])p.[moe](A)[sp].[moe](A)}$$$$ (last 3' nucleoside missing)", "values": [{"measurement": "3 h FOB score", "value": 2, "unit": "score 0-7"}]}
{"substance": "RNA1{[moe](A)[sp].[moe]([m5C])p.[moe]([m5C])p.[moe]([m5C])p.[moe](A)[sp].d(A)[sp].d(T)[sp].d(A)[sp].d(A)[sp].d(T)[sp].d([m5C])[sp].d(T)[sp].d(G)[sp].d(A)[sp].d([m5C])[sp].[moe](A)p.[moe](T)p.[moe]([m5C])[sp].[moe]([m5C])}$$$$ (last 3' nucleoside missing)", "values": [{"measurement": "3 h FOB score", "value": 0, "unit": "score 0-7"}]}
{"substance": "RNA1{[moe]([m5C])[sp].[moe](A)p.[moe](A)p.[moe](T)p.[moe](A)p.d(T)[sp].d(T)[sp].d(T)[sp].d(A)[sp].d(T)[sp].d(A)[sp].d(G)[sp].d(G)[sp].d(T)[sp].d(G)[sp].[moe]([m5C])p.[moe](T)p.[moe](G)[sp].[moe]([m5C])}$$$$ (last 3' nucleoside missing)", "values": [{"measurement": "3 h FOB score", "value": 4, "unit": "score 0-7"}]}
{"substance": "RNA1{[moe](G)[sp].[moe]([m5C])p.[moe](T)[sp].[moe]([m5C])[sp].[moe](A)[sp].d(T)[sp].d(T)[sp].d(T)[sp].d(A)[sp].d(T)[sp].d(T)[sp].d([m5C])[sp].d(T)[sp].d([m5C])[sp].d(A)[sp].[moe](A)[sp].[moe](G)p.[moe](T)[sp].[moe](A)}$$$$ (last 3' nucleoside missing)", "values": [{"measurement": "3 h FOB score", "value": 2, "unit": "score 0-7"}]}
{"substance": "RNA1{[moe](A)[sp].[moe]([m5C])p.[moe]([m5C])p.[moe](A)p.[moe](T)[sp].d([m5C])[sp].d(T)[sp].d(T)[sp].d(T)[sp].d(G)[sp].d(A)[sp].d([m5C])[sp].d(A)[sp].d(A)[sp].d(G)[sp].[moe]([m5C])p.[moe](T)p.[moe](A)[sp].[moe](T)}$$$$ (last 3' nucleoside missing)", "values": [{"measurement": "3 h FOB score", "value": 2.75, "unit": "score 0-7"}]}
{"substance": "RNA1{[moe](A)[sp].[moe](G)[sp].[moe]([m5C])p.[moe]([m5C])p.[moe](A)[sp].d(A)[sp].d(T)[sp].d(A)[sp].d(T)[sp].d(T)[sp].d(T)[sp].d(A)[sp].d(T)[sp].d(A)[sp].d(G)[sp].[moe](G)p.[moe](T)p.[moe](G)[sp].[moe]([m5C])}$$$$ (last 3' nucleoside missing)", "values": [{"measurement": "3 h FOB score", "value": 1, "unit": "score 0-7"}]}
{"substance": "RNA1{[moe](A)[sp].[moe](T)p.[moe]([m5C])p.[moe](A)p.[moe]([m5C])[sp].d(T)[sp].d(G)[sp].d([m5C])[sp].d(A)[sp].d([m5C])[sp].d(A)[sp].d([m5C])[sp].d(T)[sp].d(T)[sp].d(T)[sp].[moe]([m5C])p.[moe]([m5C])p.[moe](T)[sp].[moe]([m5C])}$$$$ (last 3' nucleoside missing)", "values": [{"measurement": "3 h FOB score", "value": 0, "unit": "score 0-7"}]}
{"substance": "RNA1{[moe](G)[sp].[moe](G)p.[moe]([m5C])p.[moe](A)p.[moe]([m5C])p.d(A)[sp].d(T)[sp].d(T)[sp].d(T)[sp].d(T)[sp].d(T)[sp].d(T)[sp].d(A)[sp].d(T)[sp].d(A)[sp].[moe](G)p.[moe](A)p.[moe](G)[sp].[moe](T)}$$$$ (last 3' nucleoside missing)", "values": [{"measurement": "3 h FOB score", "value": 1.25, "unit": "score 0-7"}]}
{"substance": "RNA1{[moe](A)[sp].[moe]([m5C])p.[moe](T)p.[moe](G)p.[moe]([m5C])[sp].d(A)[sp].d([m5C])[sp].d(A)[sp].d([m5C])[sp].d(T)[sp].d(T)[sp].d(T)[sp].d([m5C])[sp].d([m5C])[sp].d(T)[sp].[moe]([m5C])p.[moe]([m5C])p.[moe](T)[sp].[moe]([m5C])}$$$$ (last 3' nucleoside missing)", "values": [{"measurement": "3 h FOB score", "value": 0, "unit": "score 0-7"}]}
{"substance": "RNA1{[moe](G)[sp].[moe](G)p.[moe]([m5C])p.[moe](A)p.[moe]([m5C])p.[moe](A)p.d(T)[sp].d(T)[sp].d(T)[sp].d(T)[sp].d(T)[sp].d(T)[sp].d(A)[sp].d(T)[sp].d(A)[sp].d(G)[sp].[moe](A)p.[moe](G)[sp].[moe](T)}$$$$ (last 3' nucleoside missing)", "values": [{"measurement": "3 h FOB score", "value": 1, "unit": "score 0-7"}]}
{"substance": "RNA1{[moe](T)[sp].[moe](G)p.[moe]([m5C])p.[moe](A)p.[moe]([m5C])[sp].d(A)[sp].d([m5C])[sp].d(T)[sp].d(T)[sp].d(T)[sp].d([m5C])[sp].d([m5C])[sp].d(T)[sp].d([m5C])[sp].d([m5C])[sp].[moe](T)p.[moe]([m5C])p.[moe](A)[sp].[moe](A)}$$$$ (last 3' nucleoside missing)", "values": [{"measurement": "3 h FOB score", "value": 0.5, "unit": "score 0-7"}]}
{"substance": "RNA1{[moe](G)[sp].[moe](T)p.[moe](T)p.[moe]([m5C])p.[moe]([m5C])p.d(A)[sp].d(G)[sp].d(A)[sp].d(T)[sp].d([m5C])[sp].d(A)[sp].d([m5C])[sp].d([m5C])[sp].d(A)[sp].d(T)[sp].[moe]([m5C])p.[moe](T)p.[moe](T)[sp].[moe](T)}$$$$ (last 3' nucleoside missing)", "values": [{"measurement": "3 h FOB score", "value": 3.5, "unit": "score 0-7"}]}
{"substance": "RNA1{[moe](G)[sp].[moe](G)p.[moe](T)p.[moe](T)p.[moe](T)[sp].d(T)[sp].d([m5C])[sp].d(T)[sp].d([m5C])[sp].d(A)[sp].d(T)[sp].d(T)[sp].d(T)[sp].d(T)[sp].d(T)[sp].[moe](A)p.[moe](T)p.[moe](A)[sp].[moe](T)}$$$$ (last 3' nucleoside missing)", "values": [{"measurement": "3 h FOB score", "value": 2.25, "unit": "score 0-7"}]}
{"substance": "RNA1{[moe](T)[sp].[moe](A)p.[moe](A)p.[moe](T)p.[moe](A)[sp].d([m5C])[sp].d(T)[sp].d(T)[sp].d(U)[sp].d(T)[sp].d(T)[sp].d([m5C])[sp].d([m5C])[sp].d(A)[sp].d(G)[sp].[moe]([m5C])p.[moe]([m5C])p.[moe](T)[sp].[moe](T)}$$$$ (last 3' nucleoside missing)", "values": [{"measurement": "3 h FOB score", "value": 1, "unit": "score 0-7"}]}
{"substance": "RNA1{[moe](G)[sp].[moe]([m5C])p.[moe](A)p.[moe]([m5C])p.[moe]([m5C])p.d(A)[sp].d(T)[sp].d(A)[sp].d(T)[sp].d(A)[sp].d(T)[sp].d(A)[sp].d(T)[sp].d([m5C])[sp].d(T)[sp].[moe]([m5C])p.[moe](A)p.[moe](G)[sp].[moe](A)}$$$$ (last 3' nucleoside missing)", "values": [{"measurement": "3 h FOB score", "value": 1, "unit": "score 0-7"}]}
{"substance": "RNA1{[moe](G)[sp].[moe](T)p.[moe](G)p.[moe]([m5C])p.[moe](T)p.d(T)[sp].d(T)[sp].d(T)[sp].d([m5C])[sp].d(A)[sp].d(T)[sp].d(A)[sp].d([m5C])[sp].d([m5C])[sp].d(A)[sp].[moe](G)p.[moe](G)p.[moe](T)[sp].[moe]([m5C])}$$$$ (last 3' nucleoside missing)", "values": [{"measurement": "3 h FOB score", "value": 1.5, "unit": "score 0-7"}]}
